{"source": "patent US12018001B2", "about": "“Pyrimidine cyclohexenyl glucocorticoid receptor modulators” (priority 2018, dated 2024)", "data": [{"biological_target": "T1, glucocorticoid receptor (Homo sapiens, UniProt P04150)", "T1 construct": "host or cells: HepG2", "T1 sequence (P04150 1-777)": "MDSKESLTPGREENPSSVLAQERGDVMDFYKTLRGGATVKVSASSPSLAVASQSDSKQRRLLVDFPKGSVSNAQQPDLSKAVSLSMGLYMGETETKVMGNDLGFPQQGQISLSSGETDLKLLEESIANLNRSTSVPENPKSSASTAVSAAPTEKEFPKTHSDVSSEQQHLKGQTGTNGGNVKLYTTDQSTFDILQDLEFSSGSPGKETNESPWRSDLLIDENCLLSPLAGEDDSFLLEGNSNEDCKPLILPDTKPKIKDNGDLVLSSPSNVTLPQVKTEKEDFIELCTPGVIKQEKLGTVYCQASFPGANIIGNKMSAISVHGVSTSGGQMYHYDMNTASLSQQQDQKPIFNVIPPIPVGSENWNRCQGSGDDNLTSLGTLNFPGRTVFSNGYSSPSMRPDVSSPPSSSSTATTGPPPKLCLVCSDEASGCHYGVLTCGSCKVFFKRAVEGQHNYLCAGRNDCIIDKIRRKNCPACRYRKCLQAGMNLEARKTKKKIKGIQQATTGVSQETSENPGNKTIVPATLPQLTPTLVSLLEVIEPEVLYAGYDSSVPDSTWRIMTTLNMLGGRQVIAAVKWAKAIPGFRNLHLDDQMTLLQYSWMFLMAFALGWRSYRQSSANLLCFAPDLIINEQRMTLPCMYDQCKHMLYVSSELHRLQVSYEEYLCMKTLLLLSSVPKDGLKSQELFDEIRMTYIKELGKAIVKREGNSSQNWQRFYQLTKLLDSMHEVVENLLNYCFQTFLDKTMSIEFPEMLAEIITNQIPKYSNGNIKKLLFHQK", "assay": "Hep G2 TAT assay: induction of TAT by dexamethasone in HepG2 cells", "type": "cell-based", "procedure": "Glucocorticoid mediated activation of TAT occurs by transactivation of glucocorticoid response elements in the TAT promoter by glucocorticoid receptor-agonist complex.\nTAT activity was measured as outlined in the literature by A. Ali et al., J. Med. Chem., 2004, 47, 2441-2452.\nHepG2 cells were cultured using MEME media supplemented with 10% (v/v) foetal bovine serum; 2 mM L-glutamine and 1% (v/v) NEAA at 37° C., 5%/95% (v/v) CO2/air. The HepG2 cells were counted and adjusted to yield a density of 0.125×10^6 cells/ml in RPMI 1640 without phenol red, 10% (v/v) charcoal stripped FBS, 2 mM L-glutamine and seeded at 25,000 cells/well in 200 μl into 96 well, sterile, tissue culture micro titre plates, and incubated at 37° C., 5% CO2 for 24 hours\nGrowth media was removed and replaced with assay media {RPMI 1640 without phenol red, 2 mM L-glutamine+10 μM forskolin}. […] Compounds were serially half log diluted in 100% (v/v) dimethylsulphoxide from a 10 mM stock.\nHepG2 cells were then lysed with 30 μl of cell lysis buffer containing a protease inhibitor cocktail for 15 minutes at 4° C. 155 μl of substrate mixture was then added containing 5.4 mM Tyrosine sodium salt, 10.8 mM alpha ketoglutarate and 0.06 mM pyridoxal 5′ phosphate in 0.1 M potassium phosphate buffer (pH 7.4). After 2 hours incubation at 37° C. the reaction was terminated by the addition of 15 μl of 10 M aqueous potassium hydroxide solution, and the plates incubated for a further 30 minutes at 37° C. The TAT activity product was measured by absorbance at λ 340 nm.\n[compound] and fitting the data to a 4 parameter logistic equation.", "units": {"Ki": "nM"}, "values": [{"smiles": "O=c1[nH]c(C2CC=C(c3ccc(OC(F)(F)F)cc3Cl)CC2)c(Cc2ccccc2)c(=O)[nH]1", "note": "(centres unmarked) [Example 60]", "Ki": 41}, {"smiles": "Cn1ncc2c(C3=CCC(c4[nH]c(=O)[nH]c(=O)c4Cc4ccccc4)CC3)cccc21", "note": "(centres unmarked) [Example 61]", "Ki": 485}, {"smiles": "CC(C)Cn1nccc1C1=CCC(c2[nH]c(=O)[nH]c(=O)c2Cc2ccccc2)CC1", "note": "(centres unmarked) [Example 62]", "Ki": 884}, {"smiles": "Cc1cc(C2=CCC(c3[nH]c(=O)[nH]c(=O)c3Cc3ccccc3)CC2)n(C)n1", "note": "(centres unmarked) [Example 63]", "Ki": 632}, {"smiles": "O=c1[nH]c(C2CC=C(c3ccc(OC(F)(F)F)cc3F)CC2)c(Cc2ccccc2)c(=O)[nH]1", "note": "(centres unmarked) [Example 67]", "Ki": 120}, {"smiles": "CC(C)Oc1ccc(C2=CCC(c3[nH]c(=O)[nH]c(=O)c3Cc3ccccc3)CC2)c(F)c1", "note": "(centres unmarked) [Example 68]", "Ki": 497}, {"smiles": "CCn1nc(C(F)(F)F)cc1C1=CCC(c2[nH]c(=O)[nH]c(=O)c2Cc2ccccc2)CC1", "note": "(centres unmarked) [Example 71]", "Ki": 148}, {"smiles": "CS(=O)(=O)c1ccc(C2=CCC(c3[nH]c(=O)[nH]c(=O)c3Cc3ccccc3)CC2)c(F)c1", "note": "(centres unmarked) [Example 73]", "Ki": 70}, {"smiles": "CS(=O)(=O)c1ccc(C2=CCC(c3[nH]c(=O)[nH]c(=O)c3Cc3ccccc3)CC2)c(C(F)(F)F)c1", "note": "(centres unmarked) [Example 74]", "Ki": 264}, {"smiles": "CC(C)n1cc(C2=CCC(c3[nH]c(=O)[nH]c(=O)c3Cc3ccccc3)CC2)c(C(F)(F)F)n1", "note": "(centres unmarked) [Example 75]", "Ki": 223}, {"smiles": "Cn1cc(C2=CCC(c3[nH]c(=O)[nH]c(=O)c3Cc3ccccc3)CC2)c(C(F)(F)F)n1", "note": "(centres unmarked) [Example 77]", "Ki": 170}, {"smiles": "CCOc1ccc(C2=CCC(c3[nH]c(=O)[nH]c(=O)c3Cc3ccccc3)CC2)c(F)c1", "note": "(centres unmarked) [Example 78]", "Ki": 175}, {"smiles": "CCOc1ccc(C2=CCC(c3[nH]c(=O)[nH]c(=O)c3Cc3ccccc3)CC2)c(F)c1Cl", "note": "(centres unmarked) [Example 79]", "Ki": 530}, {"smiles": "O=c1[nH]c(C2CC=C(c3ccc(Cl)cc3F)CC2)c(Cc2ccccc2)c(=O)[nH]1", "note": "(centres unmarked) [Example 81]", "Ki": 400}, {"smiles": "CNS(=O)(=O)c1ccc(C2=CCC(c3[nH]c(=O)[nH]c(=O)c3Cc3ccccc3)CC2)c(C(F)(F)F)c1", "note": "(centres unmarked) [Example 84]", "Ki": 259}, {"smiles": "O=c1[nH]c(C2CC=C(c3ccc(OCC4CC4)cc3Cl)CC2)c(Cc2ccccc2)c(=O)[nH]1", "note": "(centres unmarked) [Example 85, 5-benzyl-6-(2′-chloro-4′-(cyclopropylmethoxy)-2,3,4,5-tetrahydro-[1,1′-biphenyl]-4-yl)pyrimidine-2,4(1H,3H)-dione]", "Ki": 1400}, {"smiles": "O=c1[nH]c(C2CC=C(c3ccc(OCCO)cc3Cl)CC2)c(Cc2ccccc2)c(=O)[nH]1", "note": "(centres unmarked) [Example 86]", "Ki": 1160}, {"smiles": "O=c1[nH]c(C2CC=C(c3ccc(OCC(F)(F)F)cc3Cl)CC2)c(Cc2ccccc2)c(=O)[nH]1", "note": "(centres unmarked) [Example 87]", "Ki": 453}, {"smiles": "Cn1ncc2cccc(C3=CCC(c4[nH]c(=O)[nH]c(=O)c4Cc4ccccc4)CC3)c21", "note": "(centres unmarked) [Example 89]", "Ki": 433}, {"smiles": "CCOc1ccc(C2=CCC(c3[nH]c(=O)[nH]c(=O)c3Cc3ccccc3)CC2)c(Cl)c1F", "note": "(centres unmarked) [Example 90]", "Ki": 746}, {"smiles": "CCOc1ccc(C2=CCC(c3[nH]c(=O)[nH]c(=O)c3Cc3ccccc3)CC2)c(F)c1F", "note": "(centres unmarked) [Example 91]", "Ki": 247}, {"smiles": "O=c1[nH]c(C2CC=C(c3ccc(OC(F)(F)F)c(F)c3F)CC2)c(Cc2ccccc2)c(=O)[nH]1", "note": "(centres unmarked) [Example 92]", "Ki": 803}, {"smiles": "O=c1[nH]c(C2CC=C(c3ccc(OC4CC4)cc3F)CC2)c(Cc2ccccc2)c(=O)[nH]1", "note": "(centres unmarked) [Example 94]", "Ki": 200}, {"smiles": "CNS(=O)(=O)c1ccc(C2=CCC(c3[nH]c(=O)[nH]c(=O)c3Cc3ccccc3)CC2)c(F)c1", "note": "(centres unmarked) [Example 98]", "Ki": 110}, {"smiles": "CN(C)S(=O)(=O)c1ccc(C2=CCC(c3[nH]c(=O)[nH]c(=O)c3Cc3ccccc3)CC2)c(F)c1", "note": "(centres unmarked) [Example 99]", "Ki": 730}, {"smiles": "O=c1[nH]c(C2CC=C(c3ccc(S(=O)(=O)N4CCCC4)cc3F)CC2)c(Cc2ccccc2)c(=O)[nH]1", "note": "(centres unmarked) [Example 100]", "Ki": 1600}, {"smiles": "CCS(=O)(=O)c1ccc(C2=CCC(c3[nH]c(=O)[nH]c(=O)c3Cc3ccccc3)CC2)c(F)c1", "note": "(centres unmarked) [Example 101]", "Ki": 65}, {"smiles": "CC(C)S(=O)(=O)c1ccc(C2=CCC(c3[nH]c(=O)[nH]c(=O)c3Cc3ccccc3)CC2)c(F)c1", "note": "(centres unmarked) [Example 102]", "Ki": 270}, {"smiles": "CN(C)S(=O)(=O)c1ccc(C2=CCC(c3[nH]c(=O)[nH]c(=O)c3Cc3ccccc3)CC2)c(Cl)c1", "note": "(centres unmarked) [Example 103]", "Ki": 258}, {"smiles": "O=c1[nH]c(C2CC=C(c3ccc(C4CC4)cc3F)CC2)c(Cc2ccccc2)c(=O)[nH]1", "note": "(centres unmarked) [Example 111, 5-benzyl-6-(4′-cyclopropyl-2′-fluoro-2,3,4,5-tetrahydro-[1,1′-biphenyl]-4-yl)pyrimidine-2,4(1H,3H)-dione]", "Ki": 113}, {"smiles": "O=c1[nH]c(C2CC=C(c3ccc(C4CC4)cc3C(F)(F)F)CC2)c(Cc2ccccc2)c(=O)[nH]1", "note": "(centres unmarked) [Example 112, 5-benzyl-6-(4′-cyclopropyl-2′-(trifluoromethyl)-2,3,4,5-tetrahydro-[1,1′-biphenyl]-4-yl)pyrimidine-2,4(1H,3H)-dione]", "Ki": 333}, {"smiles": "O=c1[nH]c(C2CC=C(c3ccc(C(F)(F)F)nc3N3CCCC3)CC2)c(Cc2ccccc2)c(=O)[nH]1", "note": "(centres unmarked) [Example 113]", "Ki": 75}, {"smiles": "O=c1[nH]c(C2CC=C(c3ccc(Cl)cc3C(F)(F)F)CC2)c(Cc2cccc(C(F)(F)F)c2)c(=O)[nH]1", "note": "(centres unmarked) [Example 114, 6-(4′-chloro-2′-(trifluoromethyl)-2,3,4,5-tetrahydro-[1,1′-biphenyl]-4-yl)-5-(3-(trifluoromethyl)benzyl)pyrimidine-2,4(1H,3H)-dione]", "Ki": 121}, {"smiles": "CS(=O)(=O)c1ccc(C2=CCC(c3[nH]c(=O)[nH]c(=O)c3Cc3cccc(F)c3F)CC2)c(F)c1", "note": "(centres unmarked) [Example 115, 5-(2,3-difluorobenzyl)-6-(2′-fluoro-4′-(methylsulfonyl)-2,3,4,5-tetrahydro-[1,1′-biphenyl]-4-yl)pyrimidine-2,4(1H,3H)-dione]", "Ki": 85}, {"smiles": "CS(=O)(=O)c1ccc(C2=CCC(c3[nH]c(=O)[nH]c(=O)c3Cc3cccc(C(F)(F)F)c3)CC2)c(F)c1", "note": "(centres unmarked) [Example 116]", "Ki": 170}, {"smiles": "CS(=O)(=O)c1ccc(C2=CCC(c3[nH]c(=O)[nH]c(=O)c3Cc3cccc(N4CCCC4)n3)CC2)c(F)c1", "note": "(centres unmarked) [Example 117]", "Ki": 559}]}, {"biological_target": "T2, GR (Homo sapiens, UniProt P04150)", "T2 sequence (P04150 1-777)": "T1 sequence (P04150 1-777)", "assay": "GR binding", "units": {"IC50": "nM"}, "values": [{"smiles": "Cn1ncc2ccc(C3=CCC(c4[nH]c(=O)[nH]c(=O)c4Cc4ccccc4)CC3)cc21", "note": "(centres unmarked) [Example 57]", "IC50": 266}, {"smiles": "CC(C)Oc1cc(C(F)(F)F)ccc1C1=CCC(c2[nH]c(=O)[nH]c(=O)c2Cc2ccccc2)CC1", "note": "(centres unmarked) [Example 59]", "IC50": 134}, {"smiles": "O=c1[nH]c(C2CC=C(c3ccc4ncsc4c3)CC2)c(Cc2ccccc2)c(=O)[nH]1", "note": "(centres unmarked) [Example 64]", "IC50": 142}, {"smiles": "O=c1[nH]c(C2CC=C(c3ccc4c(c3)OCCO4)CC2)c(Cc2ccccc2)c(=O)[nH]1", "note": "(centres unmarked) [Example 65]", "IC50": 103}, {"smiles": "Cn1cnc2ccc(C3=CCC(c4[nH]c(=O)[nH]c(=O)c4Cc4ccccc4)CC3)cc21", "note": "(centres unmarked) [Example 66]", "IC50": 3520}, {"smiles": "O=c1[nH]c(C2CC=C(c3ccc(C(F)(F)F)c(Cl)c3)CC2)c(Cc2ccccc2)c(=O)[nH]1", "note": "(centres unmarked) [Example 69]", "IC50": 3420}, {"smiles": "CN(C)c1ccc(C2=CCC(c3[nH]c(=O)[nH]c(=O)c3Cc3ccccc3)CC2)cn1", "note": "(centres unmarked) [Example 70]", "IC50": 142}, {"smiles": "O=c1[nH]c(C2CC=C(c3cnc(C(F)(F)F)nc3)CC2)c(Cc2ccccc2)c(=O)[nH]1", "note": "(centres unmarked) [Example 72]", "IC50": 1920}, {"smiles": "Cc1nn(C)c(C)c1C1=CCC(c2[nH]c(=O)[nH]c(=O)c2Cc2ccccc2)CC1", "note": "(centres unmarked) [Example 80]", "IC50": 295}, {"smiles": "CCOc1ccc(C2=CCC(c3[nH]c(=O)[nH]c(=O)c3Cc3ccccc3)CC2)c(Cl)c1", "note": "(centres unmarked) [Example 82]", "IC50": 4.4}, {"smiles": "O=c1[nH]c(C2CC=C(c3ccc(Cl)c(F)c3F)CC2)c(Cc2ccccc2)c(=O)[nH]1", "note": "(centres unmarked) [Example 83]", "IC50": 38.3}, {"smiles": "O=c1[nH]c(C2CC=C(c3cccc4nncn34)CC2)c(Cc2ccccc2)c(=O)[nH]1", "note": "(centres unmarked) [Example 88]", "IC50": 483}, {"smiles": "O=c1[nH]c(C2CC=C(c3ccc(OC4CC4)cc3Cl)CC2)c(Cc2ccccc2)c(=O)[nH]1", "note": "(centres unmarked) [Example 93]", "IC50": 10}, {"smiles": "O=c1[nH]c(C2CC=C(c3ccc(OCC4CC4)cc3C(F)(F)F)CC2)c(Cc2ccccc2)c(=O)[nH]1", "note": "(centres unmarked) [Example 95]", "IC50": 23}]}]}
